# Bridge positions count the residues as written; N and C are the ends. Peptide text beside a SMILES is read from it.
# Biological target: T1, IL17-RE-IL-17C (Homo sapiens, UniProt Q8NFR9+Q9P0M4)
# T1 sequence (Q9P0M4 whole entry): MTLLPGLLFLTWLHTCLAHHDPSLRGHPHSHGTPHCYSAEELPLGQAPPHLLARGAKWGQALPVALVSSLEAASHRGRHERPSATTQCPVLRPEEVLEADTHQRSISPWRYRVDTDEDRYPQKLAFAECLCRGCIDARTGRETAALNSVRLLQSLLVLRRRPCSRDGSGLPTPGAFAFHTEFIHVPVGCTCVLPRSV
# T1 sequence (Q8NFR9 whole entry): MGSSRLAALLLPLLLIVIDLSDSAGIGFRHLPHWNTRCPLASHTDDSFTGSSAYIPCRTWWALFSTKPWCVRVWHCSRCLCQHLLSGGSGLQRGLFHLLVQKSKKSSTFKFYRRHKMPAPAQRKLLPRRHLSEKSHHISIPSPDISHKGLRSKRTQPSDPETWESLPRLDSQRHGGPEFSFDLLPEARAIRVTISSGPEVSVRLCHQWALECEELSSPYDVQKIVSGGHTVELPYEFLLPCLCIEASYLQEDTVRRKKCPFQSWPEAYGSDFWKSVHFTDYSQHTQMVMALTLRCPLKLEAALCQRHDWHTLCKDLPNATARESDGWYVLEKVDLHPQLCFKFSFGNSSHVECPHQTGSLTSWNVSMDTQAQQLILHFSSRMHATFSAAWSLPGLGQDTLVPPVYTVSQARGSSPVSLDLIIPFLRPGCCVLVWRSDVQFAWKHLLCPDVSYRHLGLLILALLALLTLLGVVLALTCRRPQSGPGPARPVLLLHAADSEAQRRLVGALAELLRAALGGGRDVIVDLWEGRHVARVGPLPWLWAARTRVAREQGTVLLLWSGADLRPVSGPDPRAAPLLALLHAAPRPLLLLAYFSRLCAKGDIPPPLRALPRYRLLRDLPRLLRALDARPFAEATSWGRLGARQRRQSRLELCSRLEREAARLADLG
# Test: Inhibition of interleukin-17RE/biotinylated IL-17C protein-protein interaction (unknown origin) incubated for 1 hrs by competitive ELISA
# Assay type: protein-complex assay
structure (smiles),measurement,value
CC[C@H](C)[C@@H]1NC(=O)[C@H](CC(N)=O)NC(=O)[C@H](Cc2ccc(O)cc2)NC(=O)[C@H](Cc2ccc(O)cc2)NC(=O)[C@H](Cc2c[nH]cn2)NC(=O)[C@H](Cc2c[nH]cn2)NC(=O)[C@H](Cc2ccc(O)cc2)NC(=O)CSC[C@@H](C(=O)NCC(N)=O)NC(=O)CNC(=O)[C@H](CC(C)C)NC(=O)[C@H](CCC(=O)O)NC(=O)CNC(=O)[C@H](Cc2ccc(O)cc2)NC(=O)[C@H](CC(C)C)NC1=O ({CH2CO}-YHHYYNILYGELGCG-NH2; thioether N-14),IC50,2360 nM
CC[C@H](C)[C@@H]1NC(=O)[C@H](Cc2c[nH]cn2)NC(=O)[C@H](Cc2ccc(O)cc2)NC(=O)CSC[C@@H](C(=O)NCC(N)=O)NC(=O)CNC(=O)[C@H](CC(C)C)NC(=O)[C@H](CC(N)=O)NC(=O)CNC(=O)[C@H](Cc2ccc(O)cc2)NC(=O)[C@H](CC(C)C)NC(=O)[C@H](CO)NC(=O)[C@H](C)NC(=O)[C@H](Cc2ccc(O)cc2)NC(=O)[C@H](Cc2ccc(O)cc2)NC1=O ({CH2CO}-YHIYYASLYGNLGCG-NH2; thioether N-14),IC50,1.4 nM
CC[C@H](C)[C@@H]1NC(=O)[C@H](CCCNC(=N)N)NC(=O)[C@H](Cc2ccc(O)cc2)NC(=O)[C@H](Cc2ccc(O)cc2)NC(=O)[C@H](Cc2ccc(O)cc2)NC(=O)[C@H](Cc2c[nH]cn2)NC(=O)[C@H](Cc2ccc(O)cc2)NC(=O)CSC[C@@H](C(=O)NCC(N)=O)NC(=O)CNC(=O)[C@H](CC(C)C)NC(=O)[C@H](CCC(=O)O)NC(=O)CNC(=O)[C@H](Cc2ccc(O)cc2)NC(=O)[C@H](CC(C)C)NC1=O ({CH2CO}-YHYYYRILYGELGCG-NH2; thioether N-14),IC50,119 nM
CC[C@H](C)[C@@H]1NC(=O)[C@H](CCCNC(=N)N)NC(=O)[C@H](Cc2ccc(O)cc2)NC(=O)[C@H](Cc2ccc(O)cc2)NC(=O)[C@H](CC(C)C)NC(=O)[C@H](Cc2c[nH]cn2)NC(=O)[C@H](Cc2ccc(O)cc2)NC(=O)CSC[C@@H](C(=O)NCC(N)=O)NC(=O)CNC(=O)[C@H](CC(C)C)NC(=O)[C@H](CCC(=O)O)NC(=O)CNC(=O)[C@H](Cc2ccc(O)cc2)NC(=O)[C@H](CC(C)C)NC1=O ({CH2CO}-YHLYYRILYGELGCG-NH2; thioether N-14),IC50,68 nM
CC[C@H](C)[C@@H]1NC(=O)[C@H](CCCNC(=N)N)NC(=O)[C@H](Cc2ccc(O)cc2)NC(=O)[C@H](Cc2ccc(O)cc2)NC(=O)[C@H](CCC(N)=O)NC(=O)[C@H](Cc2c[nH]cn2)NC(=O)[C@H](Cc2ccc(O)cc2)NC(=O)CSC[C@@H](C(=O)NCC(N)=O)NC(=O)[C@H](C(C)C)NC(=O)[C@H](CC(C)C)NC(=O)[C@H](CCC(=O)O)NC(=O)CNC(=O)[C@H](Cc2ccc(O)cc2)NC(=O)[C@H](CC(C)C)NC1=O ({CH2CO}-YHQYYRILYGELVCG-NH2; thioether N-14),IC50,> 30000 nM
CC[C@H](C)[C@@H]1NC(=O)[C@H](CCCCN)NC(=O)[C@H](Cc2ccc(O)cc2)NC(=O)[C@H](Cc2ccc(O)cc2)NC(=O)[C@H](Cc2c[nH]cn2)NC(=O)[C@H](Cc2c[nH]cn2)NC(=O)[C@H](Cc2ccc(O)cc2)NC(=O)CSC[C@@H](C(=O)NCC(N)=O)NC(=O)CNC(=O)[C@H](CC(C)C)NC(=O)[C@H](CCC(=O)O)NC(=O)CNC(=O)[C@H](Cc2ccc(O)cc2)NC(=O)[C@H](CC(C)C)NC1=O ({CH2CO}-YHHYYKILYGELGCG-NH2; thioether N-14),IC50,116 nM
CC[C@@H](C)[C@@H]1NC(=O)[C@H](CCCNC(=N)N)NC(=O)[C@H](Cc2ccc(O)cc2)NC(=O)[C@H](Cc2ccc(O)cc2)NC(=O)[C@H](CCC(N)=O)NC(=O)[C@H](Cc2c[nH]cn2)NC(=O)[C@H](Cc2ccc(O)cc2)NC(=O)CSC[C@@H](C(=O)NCC(N)=O)NC(=O)CNC(=O)[C@H](CC(C)C)NC(=O)[C@H](CC(N)=O)NC(=O)CNC(=O)[C@H](Cc2ccc(O)cc2)NC(=O)[C@H](CC(C)C)NC1=O,IC50,5.6 nM

# From ChEMBL document CHEMBL5614375, “PepExplainer: An explainable deep learning model for selection-based macrocyclic peptide bioactivity prediction and optimization” (Eur J Med Chem, 2024)
